Like-named read-outs stand apart in the source and are kept apart here. Numbered stars: 1 amine (or outer) side, 2 acyl side, 3 side chain; on linkers, the order of the positions; unused ones are H or OH. Bridge positions count the residues as written; N and C are the ends. Square brackets hold non-standard residues; d marks the D form. * marks the point of attachment. C20 diacid = O=C(O)CCCCCCCCCCCCCCCCCCC(=O)*; γGlu = O=C(O)[C@H](CCC(=O)[*:2])N[*:1]; 4Pal = N[C@@H](Cc1ccncc1)C(=O)O; Dap = NC[C@H](N)C(=O)O; AEEA = NCCOCCOCC(=O)O; CH2 = C([*:1])[*:2]; βAla = NCCC(=O)O
What was measured:
human NPRA = target: T1, human NPRA (Homo sapiens, UniProt P16066); assay: Human NPRA cGMP activity assay (HTRF) in HEK293 cells overexpressing NPRA; format: cell-based; conditions: assay buffer with 0.1% casein
T1 construct: Full-Length cDNA Cloning and Generation of Cell Lines Overexpressing Natriuretic Peptide Receptors (NPRs); expressed in transfected cells; host or cells: Jump-in T-Rex HEK293 cells, pJTI R4 CMV-TO MCS pA vector, tetracycline induction
T1 sequence (P16066 33-1061): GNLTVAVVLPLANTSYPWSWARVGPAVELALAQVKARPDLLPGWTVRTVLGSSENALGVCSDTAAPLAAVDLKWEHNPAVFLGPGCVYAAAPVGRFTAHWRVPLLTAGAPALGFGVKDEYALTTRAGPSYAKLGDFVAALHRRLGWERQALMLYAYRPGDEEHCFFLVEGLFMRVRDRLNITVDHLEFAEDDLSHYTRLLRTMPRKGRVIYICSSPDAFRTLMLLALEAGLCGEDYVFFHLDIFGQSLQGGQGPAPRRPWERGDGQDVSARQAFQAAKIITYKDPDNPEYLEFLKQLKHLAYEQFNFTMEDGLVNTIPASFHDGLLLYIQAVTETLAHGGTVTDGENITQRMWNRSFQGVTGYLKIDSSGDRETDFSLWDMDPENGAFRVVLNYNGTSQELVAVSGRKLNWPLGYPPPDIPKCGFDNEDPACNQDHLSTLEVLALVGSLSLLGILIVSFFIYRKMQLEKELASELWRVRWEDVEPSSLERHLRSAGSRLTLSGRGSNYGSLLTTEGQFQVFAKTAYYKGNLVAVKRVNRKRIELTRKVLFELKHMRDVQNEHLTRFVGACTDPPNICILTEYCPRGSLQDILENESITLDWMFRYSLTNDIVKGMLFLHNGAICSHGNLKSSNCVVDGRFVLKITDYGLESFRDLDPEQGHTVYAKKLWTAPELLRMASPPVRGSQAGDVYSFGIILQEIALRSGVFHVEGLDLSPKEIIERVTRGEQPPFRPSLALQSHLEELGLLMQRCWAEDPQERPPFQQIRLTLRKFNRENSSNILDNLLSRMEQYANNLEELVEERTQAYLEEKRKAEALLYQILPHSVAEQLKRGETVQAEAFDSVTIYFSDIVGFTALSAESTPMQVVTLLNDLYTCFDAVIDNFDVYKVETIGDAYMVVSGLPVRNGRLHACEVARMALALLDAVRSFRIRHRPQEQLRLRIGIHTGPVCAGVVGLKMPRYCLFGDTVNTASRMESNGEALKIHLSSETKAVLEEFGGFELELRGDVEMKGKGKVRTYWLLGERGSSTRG
Method in brief: (§1)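 Tetracycline-induced (300 ng/mL, 48 h) T-Rex HEK293 cells expressing NPRA, 4000 cells/well, treated 40 min at room temperature with polypeptide (8 points, 10 μM to 1 pM) in HBSS/HEPES buffer with 0.5 mM IBMX, pH 7.4. cGMP by HTRF, normalised to 100 nM amidated rat ANP and buffer.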

rat NPRA = target: T2, rat NPRA (Rattus norvegicus, UniProt P18910); assay: Rat NPRA cGMP activity assay (HTRF) in HEK293 cells overexpressing NPRA; format: cell-based
T2 construct: Full-Length cDNA Cloning and Generation of Cell Lines Overexpressing Natriuretic Peptide Receptors (NPRs); expressed in transfected cells; host or cells: Jump-in T-Rex HEK293 cells, pJTI R4 CMV-TO MCS pA vector, tetracycline induction
T2 sequence (P18910 29-1057): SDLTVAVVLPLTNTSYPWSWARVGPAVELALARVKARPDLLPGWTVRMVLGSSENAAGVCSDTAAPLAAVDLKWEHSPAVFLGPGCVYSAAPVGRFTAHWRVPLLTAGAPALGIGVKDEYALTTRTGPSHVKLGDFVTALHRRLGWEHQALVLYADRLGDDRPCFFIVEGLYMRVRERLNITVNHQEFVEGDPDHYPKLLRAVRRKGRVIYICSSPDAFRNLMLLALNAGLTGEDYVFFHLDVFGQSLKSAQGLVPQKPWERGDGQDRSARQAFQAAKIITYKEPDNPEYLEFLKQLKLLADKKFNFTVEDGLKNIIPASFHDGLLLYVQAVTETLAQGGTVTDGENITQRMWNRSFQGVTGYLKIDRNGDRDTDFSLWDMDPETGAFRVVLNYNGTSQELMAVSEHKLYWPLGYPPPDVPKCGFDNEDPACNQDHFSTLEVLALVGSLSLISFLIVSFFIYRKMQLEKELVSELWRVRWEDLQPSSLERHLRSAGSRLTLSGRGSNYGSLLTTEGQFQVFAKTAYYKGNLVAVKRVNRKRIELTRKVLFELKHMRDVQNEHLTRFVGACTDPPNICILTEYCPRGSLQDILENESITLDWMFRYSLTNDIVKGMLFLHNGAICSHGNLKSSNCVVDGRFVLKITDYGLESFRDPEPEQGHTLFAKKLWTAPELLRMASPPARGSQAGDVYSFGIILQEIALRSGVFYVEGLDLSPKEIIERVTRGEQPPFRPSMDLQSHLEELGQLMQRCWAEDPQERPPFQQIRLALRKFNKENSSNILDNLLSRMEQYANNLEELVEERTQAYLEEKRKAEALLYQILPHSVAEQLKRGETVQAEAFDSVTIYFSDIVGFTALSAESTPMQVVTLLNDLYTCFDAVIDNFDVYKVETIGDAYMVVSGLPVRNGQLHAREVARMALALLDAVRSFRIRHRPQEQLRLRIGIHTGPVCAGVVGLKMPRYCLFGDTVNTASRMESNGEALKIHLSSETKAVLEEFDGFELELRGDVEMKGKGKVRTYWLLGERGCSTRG
Method in brief: as §1

[1] = read-out: cGMP Assay (EC50, pM) w/Casein hNPRA
[2] = assay buffer with 0.1% casein, read-out: cGMP Assay (EC50, pM) w/Casein rNPRA
[3] = cGMP Assay (EC50, pM) w/Casein hNPRA
[4] = assay buffer with 0.1% BSA, read-out: cGMP Assay (EC50, pM) w/BSA rNPRA

With “{C20 diacid-γGlu}-EKEKEKGS[4Pal]RRSSCFGGRIDRIGHQSGLGCPSFRHGGKSSGAPPPS-NH2 (linker 14-30 via CH2) [Example 67]” the EC50 (human NPRA; [1]) was 1220 pM and the EC50 (rat NPRA; [2]) was 18800 pM.
Molecule CC[C@H](C)[C@@H]1NC(=O)[C@H](CCCNC(=N)N)NC(=O)[C@H](CC(=O)O)NC(=O)[C@H]([C@@H](C)CC)NC(=O)[C@H](CCCNC(=N)N)NC(=O)CNC(=O)CNC(=O)[C@H](Cc2ccccc2)NC(=O)[C@@H](NC(=O)[C@H](CO)NC(=O)[C@H](CO)NC(=O)[C@H](CCCNC(=N)N)NC(=O)[C@H](CCCNC(=N)N)NC(=O)[C@H](Cc2ccncc2)NC(=O)[C@H](CO)NC(=O)COCCOCCNC(=O)COCCOCCNC(=O)COCCOCCNC(=O)COCCOCCNC(=O)COCCOCCNC(=O)COCCOCCNC(=O)CNC(=O)[C@H](CCCCN)NC(=O)[C@H](CCC(=O)O)NC(=O)[C@H](CCCCN)NC(=O)[C@H](CCC(=O)O)NC(=O)[C@H](CCCCN)NC(=O)[C@H](CCC(=O)O)NC(=O)CC[C@H](NC(=O)CCCCCCCCCCCCCCCCCCC(=O)O)C(=O)O)CSCSC[C@@H](C(=O)N2CCC[C@H]2C(=O)N[C@@H](CO)C(=O)N[C@@H](Cc2ccccc2)C(=O)N[C@@H](CCCNC(=N)N)C(=O)N[C@@H](Cc2c[nH]cn2)C(=O)NCC(=O)N[C@@H](CO)C(=O)N2CCC[C@H]2C(=O)N[C@@H](CO)C(=O)N[C@@H](CO)C(=O)NCC(=O)N[C@@H](C)C(=O)N2CCC[C@H]2C(=O)N2CCC[C@H]2C(=O)N2CCC[C@H]2C(=O)N[C@@H](CO)C(N)=O)NC(=O)CNC(=O)[C@H](CC(C)C)NC(=O)CNC(=O)[C@H](CO)NC(=O)[C@H](Cc2ccc(O)cc2)NC(=O)[C@H](Cc2c[nH]cn2)NC(=O)CNC1=O [Example 96] has an EC50 (human NPRA; [3]) of 720 pM and an EC50 (rat NPRA; cGMP Assay (EC50, pM) w/Casein rNPRA, assay buffer with 0.1% casein) of 12200 pM.
Work on CC[C@H](C)[C@@H]1NC(=O)[C@H](CCCNC(=N)N)NC(=O)[C@H](CC(=O)O)NC(=O)[C@H]([C@@H](C)CC)NC(=O)[C@H](CCCNC(=N)N)NC(=O)[C@H](CCCCN)NC(=O)CNC(=O)[C@H](Cc2ccccc2)NC(=O)[C@@H](NC(=O)[C@H](CO)NC(=O)[C@H](CO)NC(=O)[C@H](CCCNC(=N)N)NC(=O)[C@H](CCCNC(=N)N)NC(=O)[C@H](Cc2ccncc2)NC(=O)[C@H](CO)NC(=O)COCCOCCNC(=O)COCCOCCNC(=O)COCCOCCNC(=O)COCCOCCNC(=O)COCCOCCNC(=O)COCCOCCNC(=O)COCCOCCNC(=O)COCCOCCNC(=O)CNC(=O)[C@H](CCCCN)NC(=O)[C@H](CCC(=O)O)NC(=O)[C@H](CCCCN)NC(=O)[C@H](CCC(=O)O)NC(=O)[C@H](CCCCN)NC(=O)[C@H](CCC(=O)O)NC(=O)CC[C@H](NC(=O)CCCCCCCCCCCCCCCCCCC(=O)O)C(=O)O)CSCSC[C@@H](C(=O)N2CCC[C@H]2C(=O)N[C@@H](CO)C(=O)N[C@@H](Cc2ccccc2)C(=O)N[C@@H](CCCNC(=N)N)C(=O)N[C@@H](Cc2c[nH]cn2)C(=O)NCC(=O)NCC(=O)N[C@@H](CCCCN)C(=O)N[C@@H](CO)C(=O)N[C@@H](CO)C(=O)NCC(=O)N[C@@H](C)C(=O)N2CCC[C@H]2C(=O)N2CCC[C@H]2C(=O)N2CCC[C@H]2C(=O)N[C@@H](CO)C(N)=O)NC(=O)CNC(=O)[C@H](CC(C)C)NC(=O)CNC(=O)[C@H](CO)NC(=O)[C@H](CCC(N)=O)NC(=O)[C@H](Cc2c[nH]cn2)NC(=O)CNC1=O [Example 87] yielded an EC50 (human NPRA; [1]) of 621 pM and an EC50 (rat NPRA; [4]) of 463000 pM.
CC[C@H](C)[C@@H]1NC(=O)[C@H](CCCNC(=N)N)NC(=O)[C@H](CC(=O)O)NC(=O)[C@H]([C@@H](C)CC)NC(=O)[C@H](CCCNC(=N)N)NC(=O)CNC(=O)CNC(=O)[C@H](Cc2ccccc2)NC(=O)[C@@H](NC(=O)[C@H](CO)NC(=O)[C@H](CO)NC(=O)[C@H](CCCNC(=N)N)NC(=O)[C@H](CCCNC(=N)N)NC(=O)[C@H](Cc2ccncc2)NC(=O)[C@H](CO)NC(=O)CNC(=O)[C@H](CCCCN)NC(=O)[C@H](CCC(=O)O)NC(=O)[C@H](CCCCN)NC(=O)[C@H](CCC(=O)O)NC(=O)[C@H](CCCCN)NC(=O)[C@H](CCC(=O)O)NC(=O)CC[C@H](NC(=O)CCCCCCCCCCCCCCCCCCC(=O)O)C(=O)O)CSSC[C@@H](C(=O)N[C@@H](CC(N)=O)C(=O)N[C@@H](CO)C(=O)N[C@@H](Cc2ccccc2)C(=O)N[C@@H](CCCNC(=N)N)C(=O)N[C@@H](Cc2ccc(O)cc2)C(N)=O)NC(=O)CNC(=O)[C@H](CC(C)C)NC(=O)CNC(=O)[C@H](CO)NC(=O)[C@H](CCC(N)=O)NC(=O)[C@H](C)NC(=O)CNC1=O [Example 11] was tested, and the EC50 (human NPRA; [1]) was 1020 pM and the EC50 (rat NPRA; [4]) was 24700 pM.
“{C20 diacid-γGlu}-EKEKEKG[AEEA][AEEA][AEEA][AEEA][AEEA][AEEA]EK[βAla]RSSCFGKRIDRIGHQSGLGCPSFRHGSPSSGAPPPS-NH2 (linker 20-36 via CH2) [Example 119]” gave an EC50 (human NPRA; [1]) of 493 pM and an EC50 (rat NPRA; [2]) of 17900 pM.
CC[C@H](C)[C@@H]1NC(=O)[C@H](CCCNC(=N)N)NC(=O)[C@H](CC(=O)O)NC(=O)[C@H]([C@@H](C)CC)NC(=O)[C@H](CCCNC(=N)N)NC(=O)[C@H](CCCCN)NC(=O)CNC(=O)[C@H](Cc2ccccc2)NC(=O)[C@@H](NC(=O)[C@H](CO)NC(=O)[C@H](CO)NC(=O)[C@H](CCCNC(=N)N)NC(=O)[C@H](CCCNC(=N)N)NC(=O)[C@H](Cc2ccncc2)NC(=O)[C@H](CO)NC(=O)COCCOCCNC(=O)COCCOCCNC(=O)COCCOCCNC(=O)COCCOCCNC(=O)COCCOCCNC(=O)COCCOCCNC(=O)CNC(=O)[C@H](CCCCN)NC(=O)[C@H](CCC(=O)O)NC(=O)[C@H](CCCCN)NC(=O)[C@H](CCC(=O)O)NC(=O)[C@H](CCCCN)NC(=O)[C@H](CCC(=O)O)NC(=O)CC[C@H](NC(=O)CCCCCCCCCCCCCCCCCCC(=O)O)C(=O)O)CSCSC[C@@H](C(=O)N2CCC[C@H]2C(=O)N[C@@H](CO)C(=O)N[C@@H](Cc2ccccc2)C(=O)N[C@@H](CCCNC(=N)N)C(=O)N[C@@H](Cc2c[nH]cn2)C(=O)NCC(=O)N[C@@H](CO)C(=O)N2CCC[C@H]2C(=O)N[C@@H](CO)C(=O)N[C@@H](CO)C(=O)NCC(=O)N[C@@H](C)C(=O)N2CCC[C@H]2C(=O)N2CCC[C@H]2C(=O)N2CCC[C@H]2C(=O)N[C@@H](CO)C(N)=O)NC(=O)CNC(=O)[C@H](CC(C)C)NC(=O)CNC(=O)[C@H](CO)NC(=O)[C@H](Cc2ccc(O)cc2)NC(=O)[C@H](Cc2c[nH]cn2)NC(=O)CNC1=O [Example 113] gave an EC50 (human NPRA; [3]) of 621 pM and an EC50 (rat NPRA; cGMP Assay (EC50, pM) w/BSA rNPRA, assay buffer with 0.1% BSA) of 149000 pM.
“{C20 diacid-γGlu}-EKEKEKGEKPRSSCFGG[Dap]IDRIGHQSGLGCPSFRHGSPSSGAPPPS-NH2 (linker 14-30 via CH2) [Example 139]” was tested, and the EC50 (human NPRA; [1]) was 19700 pM and the EC50 (rat NPRA; [2]) was 200000 pM.
